Structures are written as SMILES. Active and inactive are the calls of the source. The rule behind the calls is not given here.

Series [1] in a line: AUC in C57BLKS/J-m+/+Leprdb db/db mouse at 10 mg/kg, po once daily for 11 days. It counts as ADME, organism-based. Also on record: dose 10 mg/kg, route oral. The following applies: plasma.
In series [2] the test system is Mus musculus. Kind of series: Antidiabetic activity in C57BLKS/J-m+/+Leprdb db/db mouse assessed as reduction in plasma glucose levels at 10 mg/kg, po once daily for 11 days relative to control. The format is functional. More on the design: scale not given: the % may be the effect or the level left.
The test system of series [3] is Mus musculus. The series can be described thus: Antidiabetic activity in C57BLKS/J-m+/+Leprdb db/db mouse assessed as reduction in plasma triglyceride levels at 10 mg/kg, po once daily for 11 days relative to control. It counts as functional. Also on record: scale not given: the % may be the effect or the level left.
In series [4] the test system is Canis familiaris. The series can be described thus: Antidiabetic activity in Beagle dog assessed as reduction in total cholesterol level at 4 mg/kg, po once daily for 14 days relative to control. The format is functional, Canis lupus familiaris. More on the design: scale not given: the % may be the effect or the level left.
The nature of series [5]: Cmax in C57BLKS/J-m+/+Leprdb db/db mouse at 10 mg/kg, po once daily for 11 days. The conditions noted are these: in vivo. It counts as ADME, organism-based. More on the design: dose 10 mg/kg, route oral.
Series [6] has as its system Mus musculus. Kind of series: Antidiabetic activity in high fat diet-fed streptozotocin-treated mouse assessed as reduction in plasma glucose levels at 5 mg/kg, po once daily for 12 days relative to control. It counts as functional. Also on record: scale not given: the % may be the effect or the level left.
Series [7] deals with Mus musculus. The series can be described thus: Antidiabetic activity in high fat diet-fed streptozotocin-treated mouse assessed as reduction in plasma glucose levels at 30 mg/kg, po once daily for 12 days relative to control. It counts as functional. Also on record: scale not given: the % may be the effect or the level left.
For series [8], the system named is Rattus norvegicus. Kind of series: Antidiabetic activity in Zucker fa/fa rat assessed as decrease in triglyceride levels at 0.03 mg/kg, po once daily for 7 days. The format is functional, organism-based. Also on record: dose 0.03 mg/kg.
For series [9], the system named is Rattus norvegicus. The series can be described thus: Antidiabetic activity in Zucker fa/fa rat assessed as decrease in triglyceride levels at 0.3 mg/kg, po once daily for 7 days. It counts as functional, organism-based. Also on record: dose 0.3 mg/kg.
Series [10] deals with Rattus norvegicus. The series can be described thus: Antidiabetic activity in Zucker fa/fa rat assessed as decrease in triglyceride levels at 3 mg/kg, po once daily for 7 days. The format is functional, organism-based. More on the design: dose 3 mg/kg.
Series [11] relates to Rattus norvegicus. The series can be described thus: Antidiabetic activity in Zucker fa/fa rat assessed as decrease in triglyceride levels at 15 mg/kg, po once daily for 7 days. The format is functional, organism-based. More on the design: dose 15 mg/kg.
Series [12] relates to Rattus norvegicus. Kind of series: Antidiabetic activity in Zucker fa/fa rat assessed as decrease in triglyceride levels at 1 mg/kg, po once daily for 7 days. It counts as functional, organism-based. More on the design: dose 1 mg/kg.
Series [13] concerns Rattus norvegicus. Kind of series: Antidiabetic activity in Zucker fa/fa rat assessed as decrease in triglyceride levels at 10 mg/kg, po once daily for 7 days. The format is functional, organism-based. More on the design: dose 10 mg/kg.
Series [14] has as its system Rattus norvegicus. The series can be described thus: Antidiabetic activity in Zucker fa/fa rat assessed as decrease in triglyceride levels at 100 mg/kg, po once daily for 7 days. It counts as functional, organism-based. More on the design: dose 100 mg/kg.
In series [15] the test system is Rattus norvegicus. The series can be described thus: Antidiabetic activity in po dosed Zucker fa/fa rat assessed as insulin lowering activity treated once daily for 7 days. The format is functional.
Series [16] can be described thus: AUC in Sprague-Dawley rat at 150 mg/kg, po once daily for 14 days. The format is ADME, organism-based. Also on record: dose 150 mg/kg, route oral. The following applies: plasma.
The nature of series [17]: (§1) AUC in rat at 2 mg/kg, po. The conditions noted are these: plasma. The format is ADME, organism-based, Plasma. More on the design: dose 2 mg/kg, route oral.
Series [18] deals with T1, Peroxisome proliferator-activated receptor alpha (Mus musculus, UniProt P23204).
T1 sequence (P23204 whole entry): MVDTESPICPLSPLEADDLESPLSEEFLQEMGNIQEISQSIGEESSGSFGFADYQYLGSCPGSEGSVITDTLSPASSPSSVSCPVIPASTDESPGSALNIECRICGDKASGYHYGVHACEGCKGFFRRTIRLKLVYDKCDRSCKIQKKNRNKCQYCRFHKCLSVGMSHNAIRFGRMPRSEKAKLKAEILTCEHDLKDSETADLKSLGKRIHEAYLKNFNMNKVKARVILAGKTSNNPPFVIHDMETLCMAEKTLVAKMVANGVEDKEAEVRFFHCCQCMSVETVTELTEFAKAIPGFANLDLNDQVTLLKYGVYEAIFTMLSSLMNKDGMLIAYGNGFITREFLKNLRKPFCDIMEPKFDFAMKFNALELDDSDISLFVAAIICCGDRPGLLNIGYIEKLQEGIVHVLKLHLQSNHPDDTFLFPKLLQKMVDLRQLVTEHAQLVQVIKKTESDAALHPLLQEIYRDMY
The series can be described thus: Agonist activity at mouse PPARalpha receptor expressed in african green monkey COS1 cells co-transfected with fused yeast Gal4-DBD by transactivation assay. The format is functional, cell-based, COS-1.

For series [19], the system named is Syrian golden hamster. Kind of series: Antidiabetic activity in Syrian golden hamster assessed as reduction in cholesterol level at 100 mg/kg, po once daily for 9 days relative to control. It counts as functional, Mesocricetus auratus. More on the design: scale not given: the % may be the effect or the level left.
Series [20] concerns Syrian golden hamster. Kind of series: Antidiabetic activity in Syrian golden hamster assessed as reduction in triglyceride level at 100 mg/kg, po once daily for 9 days relative to control. The format is functional, Mesocricetus auratus. Also on record: scale not given: the % may be the effect or the level left.
Series [21] in a line: AUC in Syrian golden hamster at 100 mg/kg, po once daily for 9 days. It counts as ADME, organism-based, Mesocricetus auratus. More on the design: dose 100 mg/kg, route oral. The conditions noted are these: plasma.
Series [22] has as its system Canis familiaris. Kind of series: Antidiabetic activity in Beagle dog assessed as reduction in total cholesterol level at 50 mg/kg, po once daily for 14 days relative to control. The format is functional, Canis lupus familiaris. More on the design: scale not given: the % may be the effect or the level left.
Series [23] is described as follows: AUC in Beagle dog at 50 mg/kg, po once daily for 14 days. The format is ADME, organism-based, Canis lupus familiaris. Also on record: dose 50 mg/kg, route oral. The following applies: plasma.
Series [24] in a line: Cmax in Beagle dog at 50 mg/kg, po once daily for 14 days. The conditions noted are these: in vivo. The format is ADME, organism-based, Canis lupus familiaris. More on the design: dose 50 mg/kg, route oral.
A short description of series [25]: AUC in Sprague-Dawley rat at 300 mg/kg, po once daily for 14 days. It counts as ADME, organism-based. Also on record: dose 300 mg/kg, route oral. The following applies: plasma.
Series [26] deals with Rattus norvegicus. Described as §1. The format is ADME, organism-based, Plasma. Also on record: dose 2 mg/kg, route oral. The following applies: in vivo.
The target in series [27] is T2, Peroxisome proliferator-activated receptor alpha (Homo sapiens, UniProt Q07869).
T2 sequence (Q07869 whole entry): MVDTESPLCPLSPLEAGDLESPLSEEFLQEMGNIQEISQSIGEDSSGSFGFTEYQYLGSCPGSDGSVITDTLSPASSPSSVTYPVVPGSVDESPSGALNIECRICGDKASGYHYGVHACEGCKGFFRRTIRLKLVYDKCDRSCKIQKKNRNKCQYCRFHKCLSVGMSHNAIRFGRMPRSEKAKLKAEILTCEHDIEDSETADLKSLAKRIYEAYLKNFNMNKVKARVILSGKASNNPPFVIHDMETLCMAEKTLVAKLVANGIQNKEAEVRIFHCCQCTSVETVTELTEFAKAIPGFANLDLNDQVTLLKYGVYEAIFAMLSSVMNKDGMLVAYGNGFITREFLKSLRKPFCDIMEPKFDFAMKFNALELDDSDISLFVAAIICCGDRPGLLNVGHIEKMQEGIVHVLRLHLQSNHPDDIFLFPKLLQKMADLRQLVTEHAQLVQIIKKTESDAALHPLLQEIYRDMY
Kind of series: Inhibition of human PPARalpha receptor by scintillation proximity assay. (Scintillation proximity formats need no separation of bound from free tracer.)

In series [28] the target is T2, Peroxisome proliferator-activated receptor alpha. It counts as functional, cell-based, COS-1.
Description: Agonist activity at human PPARalpha receptor expressed in african green monkey COS1 cells co-transfected with fused yeast Gal4-DBD by transactivation assay
Series [29] addresses T3, Peroxisome proliferator-activated receptor gamma (Homo sapiens, UniProt P37231).
T3 sequence (P37231 whole entry): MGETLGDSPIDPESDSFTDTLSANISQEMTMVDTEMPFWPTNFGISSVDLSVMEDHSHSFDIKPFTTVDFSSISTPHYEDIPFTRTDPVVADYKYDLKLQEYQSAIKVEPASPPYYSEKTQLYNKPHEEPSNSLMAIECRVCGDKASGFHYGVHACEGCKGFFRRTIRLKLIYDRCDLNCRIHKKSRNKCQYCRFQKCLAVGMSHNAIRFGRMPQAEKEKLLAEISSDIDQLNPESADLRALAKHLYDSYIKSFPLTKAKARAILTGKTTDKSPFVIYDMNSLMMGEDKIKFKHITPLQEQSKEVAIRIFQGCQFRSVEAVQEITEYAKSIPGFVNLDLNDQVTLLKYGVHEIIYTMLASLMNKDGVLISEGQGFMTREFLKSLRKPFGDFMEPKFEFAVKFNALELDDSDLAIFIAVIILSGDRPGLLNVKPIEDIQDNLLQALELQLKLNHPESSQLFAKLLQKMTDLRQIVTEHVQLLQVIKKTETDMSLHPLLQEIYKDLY
Description: Inhibition of human PPARgamma receptor by scintillation proximity assay

The target in series [30] is T3, Peroxisome proliferator-activated receptor gamma. The following applies: cos-1.
Description: (§2) Agonist activity at human PPARgamma receptor expressed in african green monkey COS1 cells co-transfected with fused yeast Gal4-DBD by transactivation assay
Series [31] shares this target. This is another data set of the same source.
Description: as §2

Take `CCc1ccc(CCOc2ccc(CC3SC(=O)NC3=O)cc2)nc1` (stereo not drawn) [PIOGLITAZONE]: in series [1], the exposure (AUC) – broadly, the area under the concentration-time curve, a measure of exposure – at 264 h amounted to 180 µM·h. Besides, the Activity is on record as 53% in [2] and 65% in [3].

For `CCC(C)(C)C(=O)O[C@H]1C[C@@H](C)C=C2C=C[C@H](C)[C@H](CC[C@@H]3C[C@@H](O)CC(=O)O3)[C@H]21` [SIMVASTATIN], the Activity in series [4] turned out to be 18.4%.

Turning to `CN(CCOc1ccc(CC2SC(=O)NC2=O)cc1)c1ccccn1` (stereo not drawn) [ROSIGLITAZONE], the peak concentration (Cmax) (in general, the peak of the concentration-time curve) in series [5] stood at 68 µM. For the same compound, the Activity in series [6] is 36%; in series [7], 45%; in [2] it was 76%; in [3] it was 71%. For the same compound, the result in series [8], in series [9], in series [10], in [11], in series [12] and in series [13] was Active. Further, in series [14], the result was Active. Also, the ED50 in series [15] was determined as 25 µM·h. This compound also returned an area under the curve (AUC) at 336 h in series [16] of 600 µM·h. The same compound came in with an AUC in [17] of 16.4 µM·h. In series [18], the 50% effective concentration (EC50) (in general, the concentration at which the effect is half-maximal) is greater than 3000 nM.

For the compound `CC(C)OC(=O)C(C)(C)Oc1ccc(C(=O)c2ccc(Cl)cc2)cc1` [FENOFIBRATE], the Activity in series [19] turned out to be 22.7%; in series [20], 33.7%; in series [22], 17%. The compound further showed an exposure (AUC) at 216 h in series [21] of 1800 µM·h. In addition, the AUC at 336 h in series [23] was 117 µM·h; in [25], 5600 µM·h. Also, the peak level in series [24] (Cmax) was 15 µM.

With `CC[C@@](C)(Oc1cccc(Cn2c(C)c(C(=O)c3ccc(Cl)cc3)c3ccc(OC(F)(F)F)cc32)c1)C(=O)O` (stereo in doubt; 12i), in series [26], the AUC is 1.3 µM·h. Further, the IC50 (in general, the point on the concentration scale where inhibition reaches its midpoint) in series [27] is 87 nM; in series [29] it was 9 nM. The half-maximal effective concentration (EC50) in series [28] is 107 nM; in series [18] (cos-1), greater than 1000 nM; in series [30] it was 2 nM. Also, the Activity turned out to be 71% in series [2] (10 mg/kg) and 51% in series [3] (10 mg/kg).

`CC[C@@](C)(Oc1cccc(Cn2c(C)c(C(=O)c3ccc(Cl)cc3)c3ccc(OC(F)(F)F)cc32)c1)C(=O)O` (stereo in doubt; 12j): in [26], the AUC was found to be 2.8 µM·h. In addition, the IC50 came out at 764 nM in series [27] and 5 nM in [29]. Besides, the results for the EC50 in [28], in [18] and in series [31] were 129 nM, greater than 1000 nM and 2 nM, respectively. The Activity is 45% in series [2] (10 mg/kg) and 3% in series [3] (10 mg/kg).

The values above are taken from ChEMBL document CHEMBL1158459, “Discovery of a peroxisome proliferator activated receptor gamma (PPARgamma) modulator with balanced PPARalpha activity for the treatment of type 2 diabetes and dyslipidemia” (J Med Chem, 2009).
